Test [1] concerns Human venous whole blood. Nature of the test: Human whole blood IFN-γ assay.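 Further: blood from healthy donors exposed to compound for 1 h before stimulation with anti-CD3 and anti-CD28 at 1 µg/mL each, IFN-γ quantified in supernatant by AlphaLISA.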 The conditions noted are these: human whole blood, read-out: INFg Whole Blood Normalized Agonist EC50. Format: cell-based.
Description: Human Whole Blood IFN-γ Assay
Human venous whole blood (22.5 μL per well), obtained from healthy donors, was pre-treated with compounds for one hour at 37° C. in a humidified 95% air/5% CO2 incubator. The blood was stimulated with 2.5 μL anti-human CD3 and anti-CD28 mAb at a final concentration of 1 μg/mL each for 24 hours at 37° C. IFN-γ in the supernatants was measured using AlphLISA kit (Cat # AL217).
For test [2], the target named is T1, human DGKα (Homo sapiens, UniProt P23743).
T1 construct: TVMV protease cleavage site (C); Hexa-His (C); made in house; host or cells: Sf9 insect cells (baculovirus, Bac-to-Bac)
Nature of the test: DGKα LIPGLO assay (extruded liposome substrate), in vitro DGK inhibition. It is filed as biochemical. The conditions noted are these: read-out: DGKa LIPGLO IC50.

The target in test [3] is T2, human DGKζ (Homo sapiens, UniProt Q13574).
T2 construct: TVMV protease cleavage site (C); Hexa-His (C); made in house; host or cells: Sf9 insect cells (baculovirus, Bac-to-Bac)
Nature of the test: DGKζ LIPGLO assay (extruded liposome substrate), in vitro DGK inhibition. The conditions noted are these: read-out: DGKz LIPGLO IC50. Format: biochemical.

Where [4] appears, read: normalized to 3 μM reference compound with anti-CD3 plus anti-CD28 as 100% activation.
Setting [5] is: anti-CD3 plus anti-CD28, 24 hours, 3 μM reference compound = 100% activation.
Setting [6] is: Homo sapiens, 24 h, normalized to 3 μM reference compound with anti-CD3 plus anti-CD28 as 100% activation.

Counter-ions that a name gives are not always drawn. Like-named read-outs stand apart in the source and are kept apart here.

For orientation: EC50 means the concentration needed to bring the measured effect to its halfway point. A word on the IC50: it is the concentration needed to halve the response being measured.

T1 sequence (P23743 with tags, fused parts or gaps): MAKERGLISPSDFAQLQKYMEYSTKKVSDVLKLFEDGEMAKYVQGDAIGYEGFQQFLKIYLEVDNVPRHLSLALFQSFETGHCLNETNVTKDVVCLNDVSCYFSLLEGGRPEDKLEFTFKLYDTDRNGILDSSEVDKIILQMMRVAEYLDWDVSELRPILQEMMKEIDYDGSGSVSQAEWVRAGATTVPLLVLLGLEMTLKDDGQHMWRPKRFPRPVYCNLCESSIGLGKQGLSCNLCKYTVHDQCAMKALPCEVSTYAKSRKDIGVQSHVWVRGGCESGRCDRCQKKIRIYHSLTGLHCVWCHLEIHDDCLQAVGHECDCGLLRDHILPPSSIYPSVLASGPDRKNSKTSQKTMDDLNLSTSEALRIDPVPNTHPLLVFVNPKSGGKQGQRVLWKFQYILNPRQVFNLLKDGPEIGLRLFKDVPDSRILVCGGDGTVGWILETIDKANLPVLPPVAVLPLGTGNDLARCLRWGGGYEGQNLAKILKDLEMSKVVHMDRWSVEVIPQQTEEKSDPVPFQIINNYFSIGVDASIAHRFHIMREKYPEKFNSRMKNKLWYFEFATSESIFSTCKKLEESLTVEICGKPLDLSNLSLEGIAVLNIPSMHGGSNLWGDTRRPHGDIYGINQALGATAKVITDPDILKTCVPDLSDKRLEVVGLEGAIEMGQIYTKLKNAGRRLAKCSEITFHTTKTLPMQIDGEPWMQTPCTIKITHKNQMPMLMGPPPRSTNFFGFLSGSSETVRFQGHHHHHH
T2 sequence (Q13574 with tags, fused parts or gaps isoform Q13574-4): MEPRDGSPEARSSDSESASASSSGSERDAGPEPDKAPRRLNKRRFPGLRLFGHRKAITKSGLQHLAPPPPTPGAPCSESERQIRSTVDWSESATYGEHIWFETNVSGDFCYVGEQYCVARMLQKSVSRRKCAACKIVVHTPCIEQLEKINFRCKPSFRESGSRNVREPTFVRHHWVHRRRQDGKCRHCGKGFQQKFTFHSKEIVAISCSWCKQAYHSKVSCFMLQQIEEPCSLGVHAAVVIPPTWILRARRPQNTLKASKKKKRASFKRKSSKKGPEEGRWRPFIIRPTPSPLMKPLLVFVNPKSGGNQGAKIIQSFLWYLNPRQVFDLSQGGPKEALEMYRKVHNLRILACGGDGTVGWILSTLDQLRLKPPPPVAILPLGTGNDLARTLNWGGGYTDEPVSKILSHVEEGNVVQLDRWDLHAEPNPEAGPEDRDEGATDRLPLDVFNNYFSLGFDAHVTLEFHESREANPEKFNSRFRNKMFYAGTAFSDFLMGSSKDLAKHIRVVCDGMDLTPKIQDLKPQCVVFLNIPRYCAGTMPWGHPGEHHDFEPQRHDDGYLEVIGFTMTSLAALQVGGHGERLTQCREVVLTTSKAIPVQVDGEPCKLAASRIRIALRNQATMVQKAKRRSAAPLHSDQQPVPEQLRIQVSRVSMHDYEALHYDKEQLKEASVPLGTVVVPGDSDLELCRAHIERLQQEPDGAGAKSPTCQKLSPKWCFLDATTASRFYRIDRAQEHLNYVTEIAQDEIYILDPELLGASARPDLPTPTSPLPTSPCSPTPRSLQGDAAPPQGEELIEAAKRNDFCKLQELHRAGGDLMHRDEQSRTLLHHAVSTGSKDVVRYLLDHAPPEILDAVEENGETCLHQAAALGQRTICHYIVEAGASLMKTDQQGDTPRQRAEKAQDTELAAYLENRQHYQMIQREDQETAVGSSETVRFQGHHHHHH

With `C[C@@H]1CN(c2cc(=O)n(C)c3ccc(C#N)nc23)[C@@H](C)CN1C(c1ccccc1)c1c(F)cccc1F` (single isomer, unassigned) [Example 273, TFA], the EC50 in test [1] (normalized to 3 μM reference compound with anti-CD3 plus anti-CD28 as 100% activation, TFA) was determined as 7.1 µM. The IC50 is 3.8 µM in test [2] (liposome (LIPGLO) assay) and 15 µM in test [3] (liposome (LIPGLO) assay).

`C[C@@H]1CN(c2cc(=O)n(C)c3ccc(C#N)nc23)[C@@H](C)CN1C(c1ccc(F)cc1)c1cnn(C)c1` (single isomer, unassigned) [Example 703]: in test [1] (setting [4]), the EC50 turned out to be 1.2 µM. For the same compound, the figures for the IC50 in test [2] (liposome (LIPGLO) assay) and in test [3] (liposome (LIPGLO) assay) were 4 µM and 2.5 µM, respectively.

On to `C[C@@H]1CN(c2c(C#N)c(=O)n(C)c3ccc(C#N)nc23)CCN1C(c1ccc(F)cc1)c1ccc(F)cn1` (stereo partly drawn) [Example 902], for which, in test [1] (setting [5]), the EC50 worked out at 2.2 µM. The IC50 came to 0.25 µM in test [2] (DGKα liposome (LIPGLO) assay) and 2.6 µM in test [3] (DGKζ liposome (LIPGLO) assay).

Turning to `C[C@@H]1CN(c2cc(=O)n(C)c3ccc(C#N)nc23)[C@@H](C)CN1Cc1ccc(F)c(OC(F)(F)F)c1` [Example 585], the EC50 in test [1] (setting [6]) was found to be 2.1 µM. In addition, the IC50 in test [2] (liposome (LIPGLO) assay) worked out at 9.3 µM; in test [3] (liposome (LIPGLO) assay), 1.5 µM.

On to `CC[C@@H]1CN(c2cc(=O)n(C)c3ccc(C#N)nc23)[C@@H](C)CN1C(C)c1ccc(OC)cc1` (single isomer, unassigned) [Example 483], for which the EC50 in test [1] (setting [4]) came out at 4.3 µM. Further, the IC50 in test [2] (liposome (LIPGLO) assay) was 3.3 µM; in test [3] (liposome (LIPGLO) assay), 3.9 µM.

As to `CC(c1ccc(OC(F)F)cn1)N1C[C@H](C)N(c2cc(=O)n(C)c3ccc(C#N)nc23)C[C@H]1C` (single isomer, unassigned) [Example 1225], in test [1] (setting [4]), the EC50 amounted to 7.7 µM. Further, the IC50 in test [2] (liposome (LIPGLO) assay) was found to be 0.15 µM; in test [3] (liposome (LIPGLO) assay) it was 1.2 µM.

Regarding `CC[C@H]1CN(C(C)c2ccc(OC(F)(F)F)cc2)[C@H](C)CN1c1cc(=O)n(C)c2ccc(C#N)nc12` (single isomer, unassigned) [Example 1142], the EC50 in test [1] (setting [4]) amounted to 1.2 µM. Besides, the figures for the IC50 in test [2] (liposome (LIPGLO) assay) and in test [3] (liposome (LIPGLO) assay) were 0.7 µM and 1.6 µM, respectively.

Regarding `CC[C@H]1CN(C(C)c2ccc(F)cc2)[C@H](C)CN1c1cc(=O)n(C)c2ccc(C#N)nc12` (single isomer, unassigned) [Example 1136], the EC50 in test [1] (setting [4]) amounted to 2.3 µM. The IC50 in test [2] (liposome (LIPGLO) assay) came out at 1.1 µM; in test [3] (liposome (LIPGLO) assay), 11 µM.

Turning to `CSCC(c1ccc(F)cc1)N1C[C@H](C)N(c2cc(=O)n(C)c3ccc(C#N)nc23)C[C@H]1C` (single isomer, unassigned) [Example 1318], the EC50 in test [1] (setting [6]) was 0.088 µM. Moreover, the IC50 in test [2] (liposome (LIPGLO) assay) stood at 0.0062 µM; in test [3] (liposome (LIPGLO) assay), 0.034 µM.

Take `C[C@@H]1CN(c2cc(=O)n(C)c3ccc(C#N)nc23)[C@@H](C)CN1C(c1ccc(F)cc1)c1cncnc1` (single isomer, unassigned) [Example 394]: the EC50 in test [1] (setting [4]) was found to be 18 µM. Also, the IC50 was determined as 42 µM in test [2] (liposome (LIPGLO) assay) and 49 µM in test [3] (liposome (LIPGLO) assay).

Turning to `CC(c1c(F)cccc1F)N1C[C@H](C)N(c2c(C#N)c(=O)n(C)c3ccc(C#N)nc23)C[C@H]1C` (single isomer, unassigned) [Example 780], the EC50 in test [1] (Homo sapiens, 24 h, anti-CD3 plus anti-CD28, 24 hours, 3 μM reference compound = 100% activation) worked out at 14 µM. In addition, the IC50 in test [2] (DGKα liposome (LIPGLO) assay) came to 1.5 µM; in test [3] (DGKζ liposome (LIPGLO) assay) it was 31 µM.

Regarding `Cc1cc(C(c2ccc(F)cc2)N2C[C@H](C)N(c3cc(=O)n(C)c4ccc(C#N)nc34)C[C@H]2C)no1` (single isomer, unassigned) [Example 734], the EC50 in test [1] (setting [5]) was determined as 1.4 µM. Moreover, the concentration for half-maximal inhibition (IC50) in test [2] (DGKα liposome (LIPGLO) assay) was 0.18 µM; in test [3] (DGKζ liposome (LIPGLO) assay) it was 0.29 µM.

As for `CC[C@H]1CN(C(C)c2ccc(C3CC3)cc2)[C@H](CC)CN1c1cc(=O)n(C)c2ccc(C#N)nc12` (single isomer, unassigned) [Example 1356], in test [1] (setting [4]), the half-maximal effective concentration (EC50) came out at 1.3 µM. In addition, the half-maximal inhibitory concentration (IC50) is 1.9 µM in test [2] (liposome (LIPGLO) assay) and 3.4 µM in test [3] (liposome (LIPGLO) assay).

With `Cc1cc(C(c2ccc(F)cc2)N2C[C@H](C)N(c3cc(=O)n(C)c4ccc(C#N)nc34)C[C@H]2C)no1` (single isomer, unassigned) [Example 733], the concentration giving a half-maximal response (EC50) in test [1] (setting [5]) amounted to 3.5 µM. Besides, the IC50 in test [2] (DGKα liposome (LIPGLO) assay) is 4.1 µM; in test [3] (DGKζ liposome (LIPGLO) assay), 1.5 µM.

As for `CC(c1cccc(OC(F)(F)F)c1F)N1C[C@H](C)N(c2cc(=O)n(C)c3ccc(C#N)nc23)C[C@H]1C` (single isomer, unassigned) [Example 1208], the EC50 in test [1] (setting [4]) amounted to 1 µM. Moreover, the IC50 in test [2] (liposome (LIPGLO) assay) stood at 1.1 µM; in test [3] (liposome (LIPGLO) assay), 0.037 µM.

`CC[C@H]1CN(C(C)c2cc(F)cc(OC(F)(F)F)c2)[C@H](C)CN1c1cc(=O)n(C)c2ccc(C#N)nc12` (stereo partly drawn) [Example 1384]: the EC50 in test [1] (setting [6]) is 8 µM. The IC50 in test [2] (liposome (LIPGLO) assay) amounted to 9.4 µM; in test [3] (liposome (LIPGLO) assay), 0.26 µM.

Source of the values: patent US10669272B2, “Substituted naphthyridinone compounds useful as T cell activators” (BRISTOL-MYERS SQUIBB COMPANY, priority 2018, dated 2020).
